From patent US7276493B2, “Fungicide for treating plants” (Valent BioSciences Corporation, priority 2003, dated 2007)

Legend:
Botrytis cinerea [1] = assay: Detached bean leaf bioassay, fungal control; format: in vivo; conditions: detached bean leaf (Phaseolus vulgaris), three days after inoculation, 100 minus percent necrotic area
Method: Compound solution: Compound solutions were prepared by diluting compound stock solutions (1.0% w/v compound in DMSO) to 200 ppm with 0.01% w/v Triton X-100.
Spore solution preparation: Botrytis cinerea spores were taken from 6-week-old cultures grown at 22C on full strength potato dextrous agar (PDA) plates and harvested in 1:16 frozen orange juice concentrate:water. Botrytis cinerea spore solutions were prepared by diluting spore cultures to 5×10^4 spores/mL with 1:16 frozen orange juice concentrate:water.
Plant material: Middle trifoliate leaves of greenhouse grown Phaseolus vulgaris (Bush bean cv. Blue Lake 274) were excised and placed on a plastic grid above a tray containing moist towels.
Treatment method: One half of the adaxial surface of the leaf was treated with the compound solution (100:L) using a 3 cm Bacti Cell Spreader. A blank consisted of 0.01% w/v Triton X-100. A commercial fungicide control (200 ppm diluted with water) consisted of Scala. […]
Fungal control rating: Three days after inoculation with Botrytis, the percent necrotic area under the inoculation droplet was determined. Since the areas under the blank (0.01% w/v Triton X-100) were 100% infected, fungal control was expressed as 100 minus the percent necrotic area, and thus 0% infected is 100% fungal control (n=3 leaves/compound, 5 inoculation droplets/leaf, Table 2).

[2] = tested on: Phaseolus vulgaris (Bush bean cv. Blue Lake 274); assay: Detached bean leaf bioassay, phytotoxicity rating; format: in vivo
Method: Compound solution: Compound solutions were prepared by diluting compound stock solutions (1.0% w/v compound in DMSO) to 200 ppm with 0.01% w/v Triton X-100. Plant material: Middle trifoliate leaves of greenhouse grown Phaseolus vulgaris (Bush bean cv. Blue Lake 274) were excised and placed on a plastic grid above a tray containing moist towels. Treatment method: One half of the adaxial surface of the leaf was treated with the compound solution (100:L) using a 3 cm Bacti Cell Spreader. A blank consisted of 0.01% w/v Triton X-100. A commercial fungicide control (200 ppm diluted with water) consisted of Scala. After the solutions dried, the trays containing the leaves were covered and held one day in a growth chamber (22C). The adaxial surfaces of the leaves were then inoculated with 5–60:L droplets of Botrytis cinerea spore solution. Phytotoxicity ratings: Phytotoxicity was rated as 0=no phytotoxicity, 1=slight phytotoxicity, 2=moderate phytotoxicity, or 3=excessive phytotoxicity (Table 2).

Sclerotinia sclerotiorum = assay: Contact evaluation (microtiter plate); format: cell-based; parameters: key: Full: fungal inhibition was rated as full, partial, or none; Partial: fungal inhibition was rated as full, partial, or none; None: fungal inhibition was rated as full, partial, or none; conditions: Sclerotinia sclerotionum
Method: (§1) Compound solution: Contact evaluations were conducted to determine the anti-fungal activity of each compound against Botrytis cinerea, Sclerotinia sclerotiorum, Pythium aphanidermatum, Rhizoctonia solani, Cercospora arachidicola, Mycosphaerella fijiensis, and Monilinia laxa. Five milligrams of each compound were dissolved in 0.5 milliliter of DMSO for a compound stock solution of 1.0% w/v. Compound stock solutions were serial diluted with DMSO to 20, 10, and 2 ppm final well concentration. Fungi preparation: Botrytis cinerea spores were taken from 6-week-old cultures grown at 22C on full strength potato dextrous agar (PDA) plates. Sclerotinia sclerotiorum, Pythium aphanidermatum, Rhizoctonia solani, and Monilinia laxa mycelia were taken from 4- to 10-day-old shake flask cultures grown at room temperature on full strength potato dextrous broth (PDB). Cercospora arachidicola mycelia were taken from 10- to 14-day-old shake flask cultures grown at room temperature on a full strength PDB amended with peanut oil. Mycosphaerella fijiensis mycelia were taken from 10- to 14-day-old shake flask cultures grown at room temperature on V8 juice broth. Sclerotinia sclerotiorum, Pythium aphanidermatum, Rhizoctonia solani, Cercospora arachidicola, and Mycosphaerella fijiensis mycelia (0.4 g mycelia) were blended for 45 seconds in 20 mL sterile de-ionized water. Monilinia laxa mycelia (1 g mycelia) was blended for 45 seconds in 30 mL of sterile de-ionized water. Botrytis cinerea spores were diluted with quarter strength PDB to 1×10^5 spores/mL final well concentration. All mycelia were diluted in water (1:5 mycelia:water) before distributing into the wells. Microtiter plate preparation: Compound solution (10:L), quarter strength PDB (900:L) and fungi preparation (100:L) were sequentially distributed into 48-well microtiter plates (n=3 replications/compound/rate). A blank consisted of quarter strength PDB and fungi preparation. Commercial fungicide controls (100 ppm diluted with water) consisted of Scala for Botrytis cinerea, Dithane F-45 for Mycosphaerella fijiensis, and Benlate for Sclerotinia sclerotiorum, Pythium aphanidermatum, Rhizoctonia solani, Cercospora arachidicola, and Monilinia laxa. Plates were shaken in a circular rotator at room temperature for 20 minutes, then incubated at 25C for 24 to 72 hours, depending on the pathogen. Fungal control ratings: Fungal growth in wells containing the compounds were compared to the positive control and fungal inhibition was rated as full, partial, or none. Final readings were the average of the three wells (Table 1).

Botrytis cinerea [3] = assay: Contact evaluation (microtiter plate); format: cell-based; parameters: key: Full: fungal inhibition was rated as full, partial, or none; Partial: fungal inhibition was rated as full, partial, or none; None: fungal inhibition was rated as full, partial, or none
Method: as §1

Mycosphaerella fijiensis = assay: Contact evaluation (microtiter plate); format: cell-based; parameters: key: Full: fungal inhibition was rated as full, partial, or none; Partial: fungal inhibition was rated as full, partial, or none; None: fungal inhibition was rated as full, partial, or none
Method: as §1

Rhizoctonia solani = assay: Contact evaluation (microtiter plate); format: cell-based; parameters: key: Full: fungal inhibition was rated as full, partial, or none; Partial: fungal inhibition was rated as full, partial, or none; None: fungal inhibition was rated as full, partial, or none; conditions: Rhizoctinia solani
Method: as §1

Cercospora arachidicola = assay: Contact evaluation (microtiter plate); format: cell-based; parameters: key: Full: fungal inhibition was rated as full, partial, or none; Partial: fungal inhibition was rated as full, partial, or none; None: fungal inhibition was rated as full, partial, or none
Method: as §1

Pythium aphanidermatum = assay: Contact evaluation (microtiter plate); format: cell-based; parameters: key: Full: fungal inhibition was rated as full, partial, or none; Partial: fungal inhibition was rated as full, partial, or none; None: fungal inhibition was rated as full, partial, or none
Method: as §1

Monilinia laxa = assay: Contact evaluation (microtiter plate); format: cell-based; parameters: key: Full: fungal inhibition was rated as full, partial, or none; Partial: fungal inhibition was rated as full, partial, or none; None: fungal inhibition was rated as full, partial, or none
Method: as §1

Structure (SMILES): C/C1=C\C=C\CCC(C)CNC(=O)/C=C/C=C/C(C)C(O)C/C=C(\C)C1 (centres unmarked) [formula I]
- Botrytis cinerea control (200 ppm) (Botrytis cinerea [1]): 31%
- Phytotoxity (200 ppm) [2]: None
- Control of fungi (full, partial, none) (Sclerotinia sclerotiorum; fungicide rate 2 ppm): Full
- Control of fungi (full, partial, none) (Sclerotinia sclerotiorum; fungicide rate 10 ppm): Full
- Control of fungi (full, partial, none) (Sclerotinia sclerotiorum; fungicide rate 20 ppm): Full
- Control of fungi (full, partial, none) (Botrytis cinerea [3]; fungicide rate 2 ppm): Full
- Control of fungi (full, partial, none) (Botrytis cinerea [3]; fungicide rate 10 ppm): Full
- Control of fungi (full, partial, none) (Botrytis cinerea [3]; fungicide rate 20 ppm): Full
- Control of fungi (full, partial, none) (Mycosphaerella fijiensis; fungicide rate 2 ppm): Full
- Control of fungi (full, partial, none) (Mycosphaerella fijiensis; fungicide rate 10 ppm): Full
- Control of fungi (full, partial, none) (Mycosphaerella fijiensis; fungicide rate 20 ppm): Full
- Control of fungi (full, partial, none) (Rhizoctonia solani; fungicide rate 2 ppm): Full
- Control of fungi (full, partial, none) (Rhizoctonia solani; fungicide rate 10 ppm): Full
- Control of fungi (full, partial, none) (Rhizoctonia solani; fungicide rate 20 ppm): Full
- Control of fungi (full, partial, none) (Cercospora arachidicola; fungicide rate 2 ppm): Full
- Control of fungi (full, partial, none) (Cercospora arachidicola; fungicide rate 10 ppm): Full
- Control of fungi (full, partial, none) (Cercospora arachidicola; fungicide rate 20 ppm): Full
- Control of fungi (full, partial, none) (Pythium aphanidermatum; fungicide rate 2 ppm): Full
- Control of fungi (full, partial, none) (Pythium aphanidermatum; fungicide rate 10 ppm): Full
- Control of fungi (full, partial, none) (Pythium aphanidermatum; fungicide rate 20 ppm): Full
- Control of fungi (full, partial, none) (Monilinia laxa; fungicide rate 2 ppm): Full
- Control of fungi (full, partial, none) (Monilinia laxa; fungicide rate 10 ppm): Full
- Control of fungi (full, partial, none) (Monilinia laxa; fungicide rate 20 ppm): Full
